Laboratory results as given in patent US20260034044A1, “A PRESERVATIVE COMPOSITION” (AnalytiCon Discovery - Zweigniederlassung der BRAIN Biotech …, priority 2022, published 2026).
Values after ≈ are worked out from the molar mass of the structure shown.

What was measured:
Assay in all cases: Antimicrobial activity (MIC)
Type in all cases: cell-based
[1] = tested on: Campylobacter jejuni DSM 4688; details: DSM4688, potato dextrose broth pH 3.8, visual evaluation, read-out: Minimal Inhibitory Concentration (MIC)
[2] = tested on: Botrytis cinerea DSM 5145; details: DSM5145, potato dextrose broth pH 3.8, visual evaluation, read-out: Minimal Inhibitory Concentration (MIC)
[3] = tested on: Listeria monocytogenes DSM 20600; details: DSM20600, potato dextrose broth pH 3.8, visual evaluation, read-out: Minimal Inhibitory Concentration (MIC)
[4] = tested on: Pseudomonas aeruginosa DSM 1117; details: DSM1117, potato dextrose broth pH 3.8, visual evaluation, read-out: Minimal Inhibitory Concentration (MIC)
[5] = tested on: Saccharomyces cerevisiae DSM 2548; details: DSM2548, potato dextrose broth pH 3.8, visual evaluation, read-out: Minimal Inhibitory Concentration (MIC)
[6] = tested on: Candida albicans ATCC10231; details: potato dextrose broth pH 3.8, visual evaluation, read-out: Minimal Inhibitory Concentration (MIC)
[7] = tested on: Cutibacterium acnes DSM 1897; details: DSM1897, potato dextrose broth pH 3.8, visual evaluation, read-out: Minimal Inhibitory Concentration (MIC)
[8] = tested on: Aspergillus brasiliensis DSM 1988; details: DSM1988, potato dextrose broth pH 3.8, visual evaluation, read-out: Minimal Inhibitory Concentration (MIC)
[9] = tested on: Candida parapsilosis ATCC 20384; details: Lodderomyces parapsilosis, ATCC20384, potato dextrose broth pH 3.8, visual evaluation, read-out: Minimal Inhibitory Concentration (MIC)
[10] = tested on: Clostridium sporogenes ATCC 19404; details: ATCC19404, potato dextrose broth pH 3.8, visual evaluation, read-out: Minimal Inhibitory Concentration (MIC)
Experimental: Compounds are dissolved at a concentration of 20 mg/ml using 100% DMSO. • Preculture: yeast and bacteria are plated on potato dextrose agar, resuspended in potato dextrose broth and CFU via OD measurement determined; adjusting CFU of the strain in PDB pH 3.8. • Preculture: for mycel forming fungi spores were directly used after thawing of cryopreserved stocks of known titre. • Final titre used for the assay: Yeast strains 5*10^3 CFU/ml, Bacteria 1*10^6 CFU/ml, Fungi (spores) 5*10^4 CFU/ml • Potato dextrose broth pH 3.8 was used as assay matrix • 500 ppm (0.05%) of the compounds were screened (final DMSO 2.5% (v/v)) • Volume: 100 μl in 96-well format • Positive controls: potassium sorbate, sodium benzoate & triclosan • 28° C. to 30° C., static incubation • Incubation time depending on spoilage organism between 2 and 8 days • Visual evaluation (per eye, for fungi with binocular magnification) Antimicrobial activities are reported in Table 1.

[11] = tested on: Fusobacterium nucleatum subsp. vincentii DSM 19507; details: DSM19507, potato dextrose broth pH 3.8, visual evaluation, read-out: Minimal Inhibitory Concentration (MIC)
[12] = tested on: Enterococcus faecalis ATCC 7080; details: ATCC7080, potato dextrose broth pH 3.8, visual evaluation, read-out: Minimal Inhibitory Concentration (MIC)
[13] = tested on: Porphyromonas gingivalis DSM 20709; details: DSM20709, potato dextrose broth pH 3.8, visual evaluation, read-out: Minimal Inhibitory Concentration (MIC)
[14] = tested on: Staphylococcus aureus DSM 2569; details: DSM2569, potato dextrose broth pH 3.8, visual evaluation, read-out: Minimal Inhibitory Concentration (MIC)
[15] = tested on: Yarrowia lipolytica DSM 70561; details: DSM70561, potato dextrose broth pH 3.8, visual evaluation, read-out: Minimal Inhibitory Concentration (MIC)
[16] = tested on: Leuconostoc mesenteroides ssp. mesenteroides DSM 20343; details: DSM20343, potato dextrose broth pH 3.8, visual evaluation, read-out: Minimal Inhibitory Concentration (MIC)
[17] = tested on: Malassezia furfur DSM 6170; details: DSM6170, potato dextrose broth pH 3.8, visual evaluation, read-out: Minimal Inhibitory Concentration (MIC)
[18] = tested on: Enterobacter cloacae DSM 6234; details: DSM6234, potato dextrose broth pH 3.8, visual evaluation, read-out: Minimal Inhibitory Concentration (MIC)
[19] = tested on: Brettanomyces naardenensis CBS 6115; details: CBS6115, potato dextrose broth pH 3.8, visual evaluation, read-out: Minimal Inhibitory Concentration (MIC)
[20] = tested on: Lactobacillus plantarum ssp. plantarum DSM 20174; details: Lactiplantibacillus plantarum, DSM20174, potato dextrose broth pH 3.8, visual evaluation, read-out: Minimal Inhibitory Concentration (MIC)
[21] = tested on: Corynebacterium xerosis DSM 20743; details: DSM20743, potato dextrose broth pH 3.8, visual evaluation, read-out: Minimal Inhibitory Concentration (MIC)
[22] = tested on: Penicillium expansum DSM 62841; details: DSM62841, potato dextrose broth pH 3.8, visual evaluation, read-out: Minimal Inhibitory Concentration (MIC)
[23] = tested on: Pseudomonas fluorescens DSM50337; details: potato dextrose broth pH 3.8, visual evaluation, read-out: Minimal Inhibitory Concentration (MIC)
[24] = tested on: Pasteurella multocida ssp. multocida DSM 16031; details: DSM16031, potato dextrose broth pH 3.8, visual evaluation, read-out: Minimal Inhibitory Concentration (MIC)
[25] = tested on: Salmonella enterica ssp. enterica Ser. typhimurium DSM 17058; details: potato dextrose broth pH 3.8, visual evaluation, read-out: Minimal Inhibitory Concentration (MIC)

| Compound | MIC [1] | MIC [2] | MIC [3] | MIC [4] | MIC [5] | MIC [6] | MIC [7] | MIC [8] | MIC [9] | MIC [10] | MIC [11] | MIC [12] | MIC [13] | MIC [14] | MIC [15] | MIC [16] | MIC [17] | MIC [18] | MIC [19] | MIC [20] | further results |
| --- | --- | --- | --- | --- | --- | --- | --- | --- | --- | --- | --- | --- | --- | --- | --- | --- | --- | --- | --- | --- | --- |
| CC1CC[C@@]2(OC1)O[C@H]1CC3C4CC=C5C[C@@H](O[C@@H]6O[C@H](CO)[C@@H](O[C@@H]7O[C@@H](C)[C@H](O)[C@@H](O)[C@H]7O)[C@H](O)[C@H]6O[C@@H]6O[C@@H](C)[C@H](O)[C@@H](O)[C@H]6O)CC[C@]5(C)C4CC[C@]3(C)[C@@]1(O)[C@@H]2C (stereo partly shown) [C] | > 80 µg/mL | > 80 µg/mL | > 80 µg/mL | > 80 µg/mL | > 80 µg/mL | > 80 µg/mL | > 80 µg/mL | > 80 µg/mL | > 80 µg/mL | 80 µg/mL (≈ 90.4 µM) | > 80 µg/mL | > 80 µg/mL | > 80 µg/mL | > 80 µg/mL | > 80 µg/mL | > 80 µg/mL | 80 µg/mL (≈ 90.4 µM) | > 80 µg/mL | > 80 µg/mL | 400 µg/mL (≈ 452 µM) | MIC [21]: > 80 µg/mL; MIC [22]: > 500 µg/mL; MIC [23]: > 80 µg/mL; MIC [24]: > 80 µg/mL; MIC [25]: > 80 µg/mL |
| C[C@@H]1CC[C@@]2(OC1)O[C@H]1CC3C4CC=C5CC(O[C@@H]6O[C@H](CO)[C@@H](O[C@@H]7O[C@@H](C)[C@H](O[C@@H]8O[C@@H](C)[C@H](O)[C@@H](O)[C@H]8O)[C@@H](O)[C@H]7O)[C@H](O)[C@H]6O[C@@H]6O[C@@H](C)[C@H](O)[C@@H](O)[C@H]6O)CC[C@]5(C)C4CC[C@]3(C)[C@@]1(O)[C@@H]2C (stereo partly shown) [B] | > 80 µg/mL | > 80 µg/mL | > 80 µg/mL | > 80 µg/mL | > 80 µg/mL | > 80 µg/mL | > 80 µg/mL | > 80 µg/mL | > 80 µg/mL | 80 µg/mL (≈ 77.6 µM) | > 80 µg/mL | > 80 µg/mL | > 80 µg/mL | > 80 µg/mL | > 80 µg/mL | > 80 µg/mL | 80 µg/mL (≈ 77.6 µM) | > 80 µg/mL | > 80 µg/mL | 400 µg/mL (≈ 388 µM) | MIC [21]: > 80 µg/mL; MIC [22]: > 500 µg/mL; MIC [23]: > 80 µg/mL; MIC [24]: > 80 µg/mL; MIC [25]: > 80 µg/mL |
| C[C@H]1CC[C@@]2(OC1)O[C@H]1CC3C4CC[C@H]5C[C@@H](O[C@@H]6O[C@H](CO)[C@H](O[C@@H]7O[C@H](CO)[C@@H](O)[C@H](O[C@@H]8OC[C@@H](O)[C@H](O)[C@H]8O)[C@H]7O[C@@H]7O[C@H](CO)[C@@H](O)[C@H](O)[C@H]7O)[C@H](O)[C@H]6O)[C@H](O)C[C@]5(C)C4=CC(=O)[C@]3(C)[C@H]1[C@@H]2C (stereo partly shown) [A] | > 80 µg/mL | > 80 µg/mL | > 80 µg/mL | > 80 µg/mL | > 80 µg/mL | > 80 µg/mL | > 80 µg/mL | > 80 µg/mL | > 80 µg/mL | 80 µg/mL (≈ 75.2 µM) | 80 µg/mL (≈ 75.2 µM) | > 80 µg/mL | > 80 µg/mL | > 80 µg/mL | > 80 µg/mL | > 80 µg/mL | > 80 µg/mL | > 80 µg/mL | > 80 µg/mL | 40 µg/mL (≈ 37.6 µM) | MIC [21]: > 80 µg/mL; MIC [22]: > 500 µg/mL; MIC [23]: > 80 µg/mL; MIC [24]: > 80 µg/mL; MIC [25]: > 80 µg/mL |
| C[C@H]1CC[C@@]2(OC1)O[C@H]1CC3C4CC[C@H]5C[C@@H](O[C@@H]6O[C@H](CO)[C@H](O[C@@H]7O[C@H](CO)[C@@H](O)[C@H](O)[C@H]7O[C@@H]7O[C@H](CO)[C@@H](O)[C@H](O)[C@H]7O)[C@H](O)[C@H]6O)[C@H](O)C[C@]5(C)C4=CC(=O)[C@]3(C)[C@H]1[C@@H]2C (stereo partly shown) [D] | > 80 µg/mL | > 80 µg/mL | > 80 µg/mL | > 80 µg/mL | > 80 µg/mL | > 80 µg/mL | > 80 µg/mL | > 80 µg/mL | > 80 µg/mL | 80 µg/mL (≈ 85.9 µM) | 80 µg/mL (≈ 85.9 µM) | > 80 µg/mL | > 80 µg/mL | > 80 µg/mL | > 80 µg/mL | > 80 µg/mL | > 80 µg/mL | > 80 µg/mL | > 80 µg/mL | 40 µg/mL (≈ 43 µM) | MIC [21]: > 80 µg/mL; MIC [22]: > 500 µg/mL; MIC [23]: > 80 µg/mL; MIC [24]: > 80 µg/mL; MIC [25]: > 80 µg/mL |
